Reference: ChEMBL document CHEMBL1128276, “Quinazoline antifolate thymidylate synthase inhibitors: replacement of glutamic acid in the C2-methyl series” (J Med Chem, 1995)

How the values were obtained:
[1] = tested on: L1210; assay: Inhibition of L1210 cell growth; format: functional, cell-based; details: Mus musculus
[2] = tested on: L1210 (1565); assay: Concentration to inhibit cell growth was measured on L1210:1565 cell line; format: functional, cell-based; details: Mus musculus
[3] = tested on: L1210 (1565); assay: Relative resistance was measured in L1210:1565 cell line; format: functional, cell-based; details: Mus musculus
[4] = target: T1, Thymidylate synthase (Mus musculus, UniProt P07607); assay: Ability to inhibit Thymidylate synthase purified from mouse L1210 leukemia cells that overproduce thymidylate synthase (TS)
T1 sequence (P07607 whole entry): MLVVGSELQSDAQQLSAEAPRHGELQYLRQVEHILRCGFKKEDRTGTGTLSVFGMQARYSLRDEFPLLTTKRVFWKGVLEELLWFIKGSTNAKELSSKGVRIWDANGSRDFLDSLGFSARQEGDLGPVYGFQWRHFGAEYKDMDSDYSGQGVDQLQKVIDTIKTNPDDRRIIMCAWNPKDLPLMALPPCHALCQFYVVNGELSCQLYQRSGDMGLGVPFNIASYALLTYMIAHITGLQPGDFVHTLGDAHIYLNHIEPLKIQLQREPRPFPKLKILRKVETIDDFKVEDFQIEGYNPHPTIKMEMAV

[5] = tested on: L1210; assay: Ability to inhibit cell growth was measured on L1210 cells(horse serum); format: functional, cell-based; details: Mus musculus
[6] = target: T1, Thymidylate synthase; assay: Inhibition of thymidylate synthase purified from mouse L1210 leukemia cells that overproduce thymidylate synthase (TS); format: cell-free

Structure (SMILES)	IC50 [1]	IC50 [2]	IC50 [4]	IC50 [5]	IC50 [6]	Relative resistance [3]
C#CCN(Cc1ccc2nc(C)nc(O)c2c1)c1ccc(C(=O)NCc2ccco2)cc1				6000 nM	1420 nM	
C#CCN(Cc1ccc2nc(C)nc(O)c2c1)c1ccc(C(=O)NCCC)cc1	8600 nM				2260 nM	
C#CCN(Cc1ccc2nc(C)nc(O)c2c1)c1ccc(C(=O)N[C@@H](C(=O)O)c2ccc(F)cc2)cc1	74000 nM		89 nM			
C#CCN(Cc1ccc2nc(C)nc(O)c2c1)c1ccc(C(=O)NCc2ccccc2[N+](=O)[O-])cc1		7500 nM		1800 nM	320 nM	4.2 dimensionless ratio
C#CCN(Cc1cc2c(O)nc(C)nc2cc1C)c1ccc(C(=O)NCc2cncs2)c(F)c1	620 nM	240 nM	110 nM			0.39 dimensionless ratio
C#CCN(Cc1ccc2nc(C)nc(O)c2c1)c1ccc(C(=O)N[C@H](C)C(=O)O)cc1	25000 nM				150 nM	
C#CCN(Cc1ccc2nc(C)nc(O)c2c1)c1ccc(C(=O)N[C@@H](C(=O)O)c2ccccc2)cc1	15000 nM	30000 nM			34 nM	2 dimensionless ratio
C#CCN(Cc1ccc2nc(C)nc(O)c2c1)c1ccc(C(=O)NCc2cccc(C#N)c2)cc1		500 nM		1500 nM	280 nM	0.33 dimensionless ratio
C#CCN(Cc1ccc2nc(C)nc(O)c2c1)c1ccc(C(=O)N[C@H](Cc2ccc([N+](=O)[O-])cc2)C(=O)O)cc1	> 20000 nM				42 nM	
C#CCN(Cc1ccc2nc(C)nc(O)c2c1)c1ccc(C(=O)NCc2ccc(Cl)cc2)cc1				70000 nM	7700 nM	
C#CCN(Cc1ccc2nc(C)nc(O)c2c1)c1ccc(C(=O)N[C@H](Cc2ccccc2)C(=O)O)cc1	41000 nM				170 nM	
C#CCN(Cc1ccc2nc(C)nc(O)c2c1)c1ccc(C(=O)Nc2ccccc2)cc1	11000 nM				1820 nM	
C#CCN(Cc1cc2c(O)nc(C)nc2cc1C)c1ccc(C(=O)N[C@@H](C(=O)O)c2cccc([N+](=O)[O-])c2)c(F)c1	2450 nM	1250 nM			4.4 nM	0.51 dimensionless ratio
C#CCN(Cc1ccc2nc(C)nc(O)c2c1)c1ccc(C(=O)NCc2cccc([N+](=O)[O-])c2)cc1		400 nM		1200 nM	110 nM	0.37 dimensionless ratio
C#CCN(Cc1ccc2nc(C)nc(O)c2c1)c1ccc(C(=O)NCc2ccccn2)cc1		5000 nM		3900 nM	450 nM	1.28 dimensionless ratio
C#CCN(Cc1ccc2nc(C)nc(O)c2c1)c1ccc(C(=O)NC)cc1	25000 nM				4200 nM	
C#CCN(Cc1ccc2nc(C)nc(O)c2c1)c1ccc(C(=O)NCC(=O)O)cc1	> 100000 nM				520 nM	
C#CCN(Cc1ccc2nc(C)nc(O)c2c1)c1ccc(C(=O)N[C@@H](C(=O)O)c2cccc([N+](=O)[O-])c2)cc1	9000 nM	13000 nM			24 nM	1.4 dimensionless ratio
C#CCN(Cc1ccc2nc(C)nc(O)c2c1)c1ccc(C(=O)N[C@@H](C(=O)O)c2cccc(O)c2)cc1	90000 nM		160 nM			
C#CCN(Cc1ccc2nc(C)nc(O)c2c1)c1ccc(C(=O)NCc2ccc([N+](=O)[O-])cc2)cc1				2200 nM	320 nM	
C#CCN(Cc1ccc2nc(C)nc(O)c2c1)c1ccc(C(=O)NCc2cccc(C(=O)O)c2)cc1				85000 nM	270 nM	

The remaining molecules from weak to strong by IC50 [1], led by results:

IC50 [1]	IC50 [2]	IC50 [4]	IC50 [5]	IC50 [6]	Structure (SMILES)	Relative resistance [3]
8000 nM	4800 nM	1720 nM			C#CCN(Cc1ccc2nc(C)nc(O)c2c1)c1ccc(C(=O)NCc2cscn2)cc1	0.6 dimensionless ratio
7200 nM				22900 nM	C#CCN(Cc1ccc2nc(C)nc(O)c2c1)c1ccc(C(=O)NCC)cc1	
6000 nM	5000 nM	760 nM			C#CCN(Cc1ccc2nc(C)nc(O)c2c1)c1ccc(C(=O)NCc2nccs2)cc1	0.83 dimensionless ratio
5500 nM				1460 nM	C#CCN(Cc1ccc2nc(C)nc(O)c2c1)c1ccc(C(=O)NCc2ccsc2)cc1	
5500 nM				1380 nM	C#CCN(Cc1ccc2nc(C)nc(O)c2c1)c1ccc(C(=O)NCc2ccoc2)cc1	
4000 nM				720 nM	C#CCN(Cc1ccc2nc(C)nc(O)c2c1)c1ccc(C(=O)NCc2ccccc2)cc1	
2500 nM	34000 nM				C#CCN(Cc1ccc2nc(C)nc(O)c2c1)c1ccc(C(=O)N[C@H](CCC)C(=O)O)cc1	
2200 nM	40000 nM				C#CCN(Cc1ccc2nc(C)nc(O)c2c1)c1ccc(C(=O)N[C@H](CCC(N)=O)C(=O)O)cc1	
2000 nM	14000 nM			58 nM	C#CCN(Cc1ccc2nc(C)nc(O)c2c1)c1ccc(C(=O)N[C@@H](C(=O)O)C(C)(C)C)cc1	7 dimensionless ratio
1700 nM	1600 nM	770 nM			C#CCN(Cc1ccc2nc(C)nc(O)c2c1)c1ccc(C(=O)NCc2nc(C)cs2)cc1	0.91 dimensionless ratio
1700 nM	2910 nM	6 nM			C#CCN(Cc1cc2c(O)nc(C)nc2cc1C)c1ccc(C(=O)N[C@@H](C(=O)O)C(C)C)c(F)c1	1.71 dimensionless ratio
1100 nM	400 nM			860 nM	C#CCN(Cc1ccc2nc(C)nc(O)c2c1)c1ccc(C(=O)NCc2cncs2)cc1	0.36 dimensionless ratio
960 nM	23000 nM			58 nM	C#CCN(Cc1ccc2nc(C)nc(O)c2c1)c1ccc(C(=O)N[C@@H](C(=O)O)C(C)C)cc1	23 dimensionless ratio
880 nM	5280 nM	7 nM			C#CCN(Cc1cc2c(O)nc(C)nc2cc1C)c1ccc(C(=O)N[C@@H](C(=O)O)C(C)(C)C)c(F)c1	6 dimensionless ratio
660 nM	500 nM	100 nM			C#CCN(Cc1cc2c(O)nc(C)nc2cc1C)c1ccc(C(=O)NCc2nccs2)c(F)c1	0.76 dimensionless ratio
620 nM	520 nM	114 nM			C#CCN(Cc1cc2c(O)nc(C)nc2cc1C)c1ccc(C(=O)NCc2ccccn2)c(F)c1	0.84 dimensionless ratio
230 nM	90 nM	48 nM			C#CCN(Cc1cc2c(O)nc(C)nc2cc1C)c1ccc(C(=O)NCc2cccc(C#N)c2)c(F)c1	0.38 dimensionless ratio
210 nM	180 nM			44 nM	C#CCN(Cc1cc2c(O)nc(C)nc2cc1C)c1ccc(C(=O)NCc2cccc([N+](=O)[O-])c2)c(F)c1	0.86 dimensionless ratio
90 nM	8200 nM				C#CCN(Cc1ccc2nc(C)nc(O)c2c1)c1ccc(C(=O)N[C@H](CCC(=O)O)C(=O)O)cc1	
80 nM	5920 nM			9 nM	C#CCN(Cc1cc2c(O)nc(C)nc2cc1C)c1ccc(C(=O)N[C@H](CCC(=O)O)C(=O)O)c(F)c1	74 dimensionless ratio
